Reference: the kinase profiling compilation of Christmann-Franck et al. (2016)

target: BRSK2 (human) (UniProt Q8IWQ3); experiment: radiometric filter-binding kinase assay, Kinase HotSpot; conditions: compound 0.5 µM; ATP 10 µM
Sequence (Q8IWQ3 whole entry, looked up): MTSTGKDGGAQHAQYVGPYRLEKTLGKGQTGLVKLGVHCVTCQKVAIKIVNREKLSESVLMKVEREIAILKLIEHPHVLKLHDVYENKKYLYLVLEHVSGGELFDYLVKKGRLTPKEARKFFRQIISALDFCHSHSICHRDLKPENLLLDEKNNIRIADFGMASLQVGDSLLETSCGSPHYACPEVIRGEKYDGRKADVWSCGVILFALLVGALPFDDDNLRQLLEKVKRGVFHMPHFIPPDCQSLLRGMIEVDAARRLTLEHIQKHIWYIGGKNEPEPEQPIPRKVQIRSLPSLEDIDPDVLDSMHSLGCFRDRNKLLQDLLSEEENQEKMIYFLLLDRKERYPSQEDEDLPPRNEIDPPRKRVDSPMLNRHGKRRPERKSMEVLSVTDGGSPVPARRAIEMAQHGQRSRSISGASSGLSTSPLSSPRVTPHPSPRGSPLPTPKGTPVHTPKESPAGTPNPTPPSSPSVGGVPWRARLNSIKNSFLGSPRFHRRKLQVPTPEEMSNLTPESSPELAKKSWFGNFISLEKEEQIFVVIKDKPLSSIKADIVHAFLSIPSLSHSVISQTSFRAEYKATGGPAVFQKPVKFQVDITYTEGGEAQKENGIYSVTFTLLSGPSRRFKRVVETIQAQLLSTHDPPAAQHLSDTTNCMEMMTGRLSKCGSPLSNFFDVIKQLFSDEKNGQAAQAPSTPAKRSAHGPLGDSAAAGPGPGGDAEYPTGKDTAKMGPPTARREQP

SMILES	residual activity
N#C/C(=C1/Nc2ccccc2S1)c1ccnc(NCCc2cccnc2)n1	88.1%
O=c1cc(N2CCOCC2)oc2c(-c3ccccc3)cccc12	96.2%
COc1cc2c(Nc3ccc(Br)cc3F)ncnc2cc1OCC1CCN(C)CC1	103%
N/C(=N\N=C/c1ccc(-c2cccc([N+](=O)[O-])c2)o1)N[N+](=O)[O-]	106%
O=C(c1ccccc1)c1ccc(N2CCOCC2)cc1O	95.5%

target: BTK (human) (UniProt Q06187); experiment: as above; conditions: compound 0.5 µM; ATP 10 µM

SMILES	residual activity
N#C/C(=C1/Nc2ccccc2S1)c1ccnc(NCCc2cccnc2)n1	88.8%
O=c1cc(N2CCOCC2)oc2c(-c3ccccc3)cccc12	94.5%
COc1cc2c(Nc3ccc(Br)cc3F)ncnc2cc1OCC1CCN(C)CC1	17.6%
N/C(=N\N=C/c1ccc(-c2cccc([N+](=O)[O-])c2)o1)N[N+](=O)[O-]	110%
O=C(c1ccccc1)c1ccc(N2CCOCC2)cc1O	103%

target: CAMK1G (human) (UniProt Q96NX5); experiment: as above; conditions: compound 0.5 µM; ATP 10 µM
Sequence (Q96NX5 whole entry, looked up): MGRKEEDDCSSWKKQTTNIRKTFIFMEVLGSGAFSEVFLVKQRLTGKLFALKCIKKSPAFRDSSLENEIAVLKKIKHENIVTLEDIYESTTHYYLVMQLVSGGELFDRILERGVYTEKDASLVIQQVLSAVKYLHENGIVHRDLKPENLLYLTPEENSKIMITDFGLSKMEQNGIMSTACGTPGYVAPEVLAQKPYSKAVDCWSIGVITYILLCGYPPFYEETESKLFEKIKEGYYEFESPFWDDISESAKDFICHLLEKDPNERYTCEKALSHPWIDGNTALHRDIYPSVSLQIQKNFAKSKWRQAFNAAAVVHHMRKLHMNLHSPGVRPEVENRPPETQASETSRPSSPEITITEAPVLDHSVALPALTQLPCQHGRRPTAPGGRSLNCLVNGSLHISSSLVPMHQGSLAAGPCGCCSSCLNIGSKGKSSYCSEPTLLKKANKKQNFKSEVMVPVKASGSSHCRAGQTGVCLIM

SMILES	residual activity
N#C/C(=C1/Nc2ccccc2S1)c1ccnc(NCCc2cccnc2)n1	92.3%
O=c1cc(N2CCOCC2)oc2c(-c3ccccc3)cccc12	93.8%
COc1cc2c(Nc3ccc(Br)cc3F)ncnc2cc1OCC1CCN(C)CC1	101%
N/C(=N\N=C/c1ccc(-c2cccc([N+](=O)[O-])c2)o1)N[N+](=O)[O-]	104%
O=C(c1ccccc1)c1ccc(N2CCOCC2)cc1O	96.1%

target: CAMK2A (human) (UniProt Q9UQM7); experiment: as above; conditions: compound 0.5 µM; ATP 10 µM

SMILES	residual activity
N#C/C(=C1/Nc2ccccc2S1)c1ccnc(NCCc2cccnc2)n1	105%
O=c1cc(N2CCOCC2)oc2c(-c3ccccc3)cccc12	91.1%
COc1cc2c(Nc3ccc(Br)cc3F)ncnc2cc1OCC1CCN(C)CC1	99.8%
N/C(=N\N=C/c1ccc(-c2cccc([N+](=O)[O-])c2)o1)N[N+](=O)[O-]	100%
O=C(c1ccccc1)c1ccc(N2CCOCC2)cc1O	105%

target: CAMK2B (human) (UniProt Q13554); experiment: as above; conditions: compound 0.5 µM; ATP 10 µM

SMILES	residual activity
N#C/C(=C1/Nc2ccccc2S1)c1ccnc(NCCc2cccnc2)n1	97.3%
O=c1cc(N2CCOCC2)oc2c(-c3ccccc3)cccc12	110%
COc1cc2c(Nc3ccc(Br)cc3F)ncnc2cc1OCC1CCN(C)CC1	98.2%
N/C(=N\N=C/c1ccc(-c2cccc([N+](=O)[O-])c2)o1)N[N+](=O)[O-]	100%
O=C(c1ccccc1)c1ccc(N2CCOCC2)cc1O	105%

target: CAMK2D (human) (UniProt Q13557); experiment: as above; conditions: compound 0.5 µM; ATP 10 µM

SMILES	residual activity
N#C/C(=C1/Nc2ccccc2S1)c1ccnc(NCCc2cccnc2)n1	89.3%
O=c1cc(N2CCOCC2)oc2c(-c3ccccc3)cccc12	100%
COc1cc2c(Nc3ccc(Br)cc3F)ncnc2cc1OCC1CCN(C)CC1	95.8%
N/C(=N\N=C/c1ccc(-c2cccc([N+](=O)[O-])c2)o1)N[N+](=O)[O-]	90.1%
O=C(c1ccccc1)c1ccc(N2CCOCC2)cc1O	95.1%

target: CAMK2G (human) (UniProt Q13555); experiment: as above; conditions: compound 0.5 µM; ATP 10 µM

SMILES	residual activity
N#C/C(=C1/Nc2ccccc2S1)c1ccnc(NCCc2cccnc2)n1	111%
O=c1cc(N2CCOCC2)oc2c(-c3ccccc3)cccc12	90.5%
COc1cc2c(Nc3ccc(Br)cc3F)ncnc2cc1OCC1CCN(C)CC1	112%
N/C(=N\N=C/c1ccc(-c2cccc([N+](=O)[O-])c2)o1)N[N+](=O)[O-]	82.1%
O=C(c1ccccc1)c1ccc(N2CCOCC2)cc1O	94%

target: CDK3 CCNE1 (human) (UniProt Q00526+P24864); experiment: as above; conditions: compound 0.5 µM; ATP 10 µM

SMILES	residual activity
N#C/C(=C1/Nc2ccccc2S1)c1ccnc(NCCc2cccnc2)n1	92.3%
O=c1cc(N2CCOCC2)oc2c(-c3ccccc3)cccc12	89.6%
COc1cc2c(Nc3ccc(Br)cc3F)ncnc2cc1OCC1CCN(C)CC1	92.9%
N/C(=N\N=C/c1ccc(-c2cccc([N+](=O)[O-])c2)o1)N[N+](=O)[O-]	85%
O=C(c1ccccc1)c1ccc(N2CCOCC2)cc1O	105%

target: CDK4 CCND1 (human) (UniProt P24385+P11802); experiment: as above; conditions: compound 0.5 µM; ATP 10 µM

SMILES	residual activity
N#C/C(=C1/Nc2ccccc2S1)c1ccnc(NCCc2cccnc2)n1	90.4%
O=c1cc(N2CCOCC2)oc2c(-c3ccccc3)cccc12	111%
COc1cc2c(Nc3ccc(Br)cc3F)ncnc2cc1OCC1CCN(C)CC1	94.8%
N/C(=N\N=C/c1ccc(-c2cccc([N+](=O)[O-])c2)o1)N[N+](=O)[O-]	96.6%
O=C(c1ccccc1)c1ccc(N2CCOCC2)cc1O	96.1%

target: CDK5 CDK5R1 p25 (human) (UniProt Q00535+Q15078); experiment: as above; conditions: compound 0.5 µM; ATP 10 µM
Sequence (Q00535 whole entry, looked up): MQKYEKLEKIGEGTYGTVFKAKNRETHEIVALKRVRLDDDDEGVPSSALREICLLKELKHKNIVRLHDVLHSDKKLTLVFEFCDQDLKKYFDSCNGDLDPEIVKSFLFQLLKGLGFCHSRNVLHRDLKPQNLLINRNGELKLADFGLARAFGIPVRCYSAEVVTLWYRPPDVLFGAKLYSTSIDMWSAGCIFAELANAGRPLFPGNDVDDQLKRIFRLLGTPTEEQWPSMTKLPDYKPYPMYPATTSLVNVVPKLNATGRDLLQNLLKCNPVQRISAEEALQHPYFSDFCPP
Sequence (Q15078 whole entry, looked up): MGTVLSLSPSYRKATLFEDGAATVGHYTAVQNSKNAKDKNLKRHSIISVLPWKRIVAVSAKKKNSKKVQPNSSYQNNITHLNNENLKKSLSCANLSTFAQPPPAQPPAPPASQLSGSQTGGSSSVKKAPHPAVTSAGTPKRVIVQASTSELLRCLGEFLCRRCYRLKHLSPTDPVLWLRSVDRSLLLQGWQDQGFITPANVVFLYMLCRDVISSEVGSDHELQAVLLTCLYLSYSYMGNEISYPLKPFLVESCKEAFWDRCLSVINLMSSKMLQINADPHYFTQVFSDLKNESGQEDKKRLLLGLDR

SMILES	residual activity
N#C/C(=C1/Nc2ccccc2S1)c1ccnc(NCCc2cccnc2)n1	90%
O=c1cc(N2CCOCC2)oc2c(-c3ccccc3)cccc12	86.7%
COc1cc2c(Nc3ccc(Br)cc3F)ncnc2cc1OCC1CCN(C)CC1	97.8%
N/C(=N\N=C/c1ccc(-c2cccc([N+](=O)[O-])c2)o1)N[N+](=O)[O-]	96.5%
O=C(c1ccccc1)c1ccc(N2CCOCC2)cc1O	98.8%

target: CDK6 CCND3 (human) (UniProt P30281+Q00534); experiment: as above; conditions: compound 0.5 µM; ATP 10 µM

SMILES	residual activity
N#C/C(=C1/Nc2ccccc2S1)c1ccnc(NCCc2cccnc2)n1	94.6%
O=c1cc(N2CCOCC2)oc2c(-c3ccccc3)cccc12	101%
N/C(=N\N=C/c1ccc(-c2cccc([N+](=O)[O-])c2)o1)N[N+](=O)[O-]	94.7%
O=C(c1ccccc1)c1ccc(N2CCOCC2)cc1O	97.7%

target: CLK1 (human) (UniProt P49759); experiment: as above; conditions: compound 0.5 µM; ATP 10 µM
Sequence (P49759 whole entry, looked up): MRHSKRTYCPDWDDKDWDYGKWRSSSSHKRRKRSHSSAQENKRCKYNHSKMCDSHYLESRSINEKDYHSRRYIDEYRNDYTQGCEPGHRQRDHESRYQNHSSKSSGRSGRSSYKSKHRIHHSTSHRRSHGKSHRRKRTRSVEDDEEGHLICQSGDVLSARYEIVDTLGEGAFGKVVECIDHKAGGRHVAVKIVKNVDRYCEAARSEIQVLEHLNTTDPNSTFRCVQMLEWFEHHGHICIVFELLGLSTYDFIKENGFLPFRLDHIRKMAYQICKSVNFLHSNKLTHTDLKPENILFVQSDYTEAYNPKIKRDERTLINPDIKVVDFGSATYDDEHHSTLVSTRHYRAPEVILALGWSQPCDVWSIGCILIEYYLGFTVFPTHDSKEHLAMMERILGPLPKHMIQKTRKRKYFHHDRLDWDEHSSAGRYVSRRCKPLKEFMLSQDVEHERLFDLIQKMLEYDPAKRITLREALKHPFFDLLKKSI

SMILES	residual activity
N#C/C(=C1/Nc2ccccc2S1)c1ccnc(NCCc2cccnc2)n1	75.4%
O=c1cc(N2CCOCC2)oc2c(-c3ccccc3)cccc12	112%
COc1cc2c(Nc3ccc(Br)cc3F)ncnc2cc1OCC1CCN(C)CC1	105%
N/C(=N\N=C/c1ccc(-c2cccc([N+](=O)[O-])c2)o1)N[N+](=O)[O-]	105%
O=C(c1ccccc1)c1ccc(N2CCOCC2)cc1O	108%

target: DCLK2 (human) (UniProt Q8N568); experiment: as above; conditions: compound 0.5 µM; ATP 10 µM
Sequence (Q8N568 whole entry, looked up): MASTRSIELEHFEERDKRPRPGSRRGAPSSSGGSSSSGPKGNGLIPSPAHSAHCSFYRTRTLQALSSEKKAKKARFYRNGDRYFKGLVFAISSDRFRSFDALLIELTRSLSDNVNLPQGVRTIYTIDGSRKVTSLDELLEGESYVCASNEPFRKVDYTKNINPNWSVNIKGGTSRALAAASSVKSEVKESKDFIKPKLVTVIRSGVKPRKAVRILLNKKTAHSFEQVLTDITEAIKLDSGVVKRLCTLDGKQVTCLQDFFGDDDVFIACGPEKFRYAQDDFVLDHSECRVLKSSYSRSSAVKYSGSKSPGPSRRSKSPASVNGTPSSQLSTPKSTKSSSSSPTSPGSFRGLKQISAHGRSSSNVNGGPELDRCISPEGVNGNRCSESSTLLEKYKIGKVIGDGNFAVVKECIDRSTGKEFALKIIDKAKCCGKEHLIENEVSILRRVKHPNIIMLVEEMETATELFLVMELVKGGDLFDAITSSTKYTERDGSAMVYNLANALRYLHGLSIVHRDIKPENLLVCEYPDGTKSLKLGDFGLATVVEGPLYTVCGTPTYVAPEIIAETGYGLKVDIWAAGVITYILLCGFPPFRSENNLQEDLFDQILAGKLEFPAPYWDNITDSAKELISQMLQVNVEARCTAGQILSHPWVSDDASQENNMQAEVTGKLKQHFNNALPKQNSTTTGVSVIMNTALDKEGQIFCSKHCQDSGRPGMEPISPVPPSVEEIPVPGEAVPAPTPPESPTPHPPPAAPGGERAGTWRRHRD

SMILES	residual activity
N#C/C(=C1/Nc2ccccc2S1)c1ccnc(NCCc2cccnc2)n1	96%
O=c1cc(N2CCOCC2)oc2c(-c3ccccc3)cccc12	97.6%
COc1cc2c(Nc3ccc(Br)cc3F)ncnc2cc1OCC1CCN(C)CC1	104%
N/C(=N\N=C/c1ccc(-c2cccc([N+](=O)[O-])c2)o1)N[N+](=O)[O-]	101%
O=C(c1ccccc1)c1ccc(N2CCOCC2)cc1O	103%

target: EPHB4 (human) (UniProt P54760); experiment: as above; conditions: compound 0.5 µM; ATP 10 µM
Sequence (P54760 whole entry, looked up): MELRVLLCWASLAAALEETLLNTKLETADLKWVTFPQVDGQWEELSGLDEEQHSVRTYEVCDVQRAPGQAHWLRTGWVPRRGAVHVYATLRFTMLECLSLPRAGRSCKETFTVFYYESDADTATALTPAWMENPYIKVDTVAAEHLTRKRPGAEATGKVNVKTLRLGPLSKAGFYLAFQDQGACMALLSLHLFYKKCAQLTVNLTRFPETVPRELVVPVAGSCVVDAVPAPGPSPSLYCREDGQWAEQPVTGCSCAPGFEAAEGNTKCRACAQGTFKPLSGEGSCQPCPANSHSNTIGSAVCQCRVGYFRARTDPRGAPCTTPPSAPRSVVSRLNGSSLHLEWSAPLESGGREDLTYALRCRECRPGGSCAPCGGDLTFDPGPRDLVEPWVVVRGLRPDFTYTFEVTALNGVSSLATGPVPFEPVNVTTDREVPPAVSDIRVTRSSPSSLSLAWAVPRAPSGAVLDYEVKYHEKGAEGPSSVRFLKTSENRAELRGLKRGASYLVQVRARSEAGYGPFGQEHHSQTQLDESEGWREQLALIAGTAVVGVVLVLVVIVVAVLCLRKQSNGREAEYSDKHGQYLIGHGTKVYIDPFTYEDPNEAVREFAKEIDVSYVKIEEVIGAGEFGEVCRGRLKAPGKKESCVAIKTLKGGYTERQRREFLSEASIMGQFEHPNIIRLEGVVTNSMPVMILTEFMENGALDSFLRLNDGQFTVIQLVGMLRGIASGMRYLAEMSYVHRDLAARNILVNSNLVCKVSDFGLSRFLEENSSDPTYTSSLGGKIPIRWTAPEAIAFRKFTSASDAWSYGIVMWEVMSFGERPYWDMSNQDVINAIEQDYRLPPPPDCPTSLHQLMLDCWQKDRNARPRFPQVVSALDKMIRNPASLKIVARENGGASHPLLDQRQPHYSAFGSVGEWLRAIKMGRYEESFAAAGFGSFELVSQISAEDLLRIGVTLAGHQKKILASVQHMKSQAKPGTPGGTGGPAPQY

SMILES	residual activity
N#C/C(=C1/Nc2ccccc2S1)c1ccnc(NCCc2cccnc2)n1	99.7%
O=c1cc(N2CCOCC2)oc2c(-c3ccccc3)cccc12	99.5%
COc1cc2c(Nc3ccc(Br)cc3F)ncnc2cc1OCC1CCN(C)CC1	13%
N/C(=N\N=C/c1ccc(-c2cccc([N+](=O)[O-])c2)o1)N[N+](=O)[O-]	91.6%

target: FLT1 (human) (UniProt P17948); experiment: as above; conditions: compound 0.5 µM; ATP 10 µM

SMILES	residual activity
N#C/C(=C1/Nc2ccccc2S1)c1ccnc(NCCc2cccnc2)n1	74%
N/C(=N\N=C/c1ccc(-c2cccc([N+](=O)[O-])c2)o1)N[N+](=O)[O-]	97.6%
O=C(c1ccccc1)c1ccc(N2CCOCC2)cc1O	97.4%

target: GSG2 (human) (UniProt Q8TF76); experiment: as above; conditions: compound 0.5 µM; ATP 10 µM

SMILES	residual activity
N#C/C(=C1/Nc2ccccc2S1)c1ccnc(NCCc2cccnc2)n1	31%
O=c1cc(N2CCOCC2)oc2c(-c3ccccc3)cccc12	93.4%
COc1cc2c(Nc3ccc(Br)cc3F)ncnc2cc1OCC1CCN(C)CC1	92.6%
N/C(=N\N=C/c1ccc(-c2cccc([N+](=O)[O-])c2)o1)N[N+](=O)[O-]	89.1%
O=C(c1ccccc1)c1ccc(N2CCOCC2)cc1O	98.5%

target: HCK (human) (UniProt P08631); experiment: as above; conditions: compound 0.5 µM; ATP 10 µM

SMILES	residual activity
N#C/C(=C1/Nc2ccccc2S1)c1ccnc(NCCc2cccnc2)n1	92.2%
O=c1cc(N2CCOCC2)oc2c(-c3ccccc3)cccc12	98.3%
N/C(=N\N=C/c1ccc(-c2cccc([N+](=O)[O-])c2)o1)N[N+](=O)[O-]	114%
O=C(c1ccccc1)c1ccc(N2CCOCC2)cc1O	114%

target: JAK1 JH1 catalytic (human) (UniProt P23458); experiment: as above; conditions: compound 0.5 µM; ATP 10 µM

SMILES	residual activity
N#C/C(=C1/Nc2ccccc2S1)c1ccnc(NCCc2cccnc2)n1	113%
O=c1cc(N2CCOCC2)oc2c(-c3ccccc3)cccc12	108%
COc1cc2c(Nc3ccc(Br)cc3F)ncnc2cc1OCC1CCN(C)CC1	99.1%
N/C(=N\N=C/c1ccc(-c2cccc([N+](=O)[O-])c2)o1)N[N+](=O)[O-]	102%
O=C(c1ccccc1)c1ccc(N2CCOCC2)cc1O	108%

target: LTK (human) (UniProt P29376); experiment: as above; conditions: compound 0.5 µM; ATP 10 µM
Sequence (P29376 whole entry, looked up): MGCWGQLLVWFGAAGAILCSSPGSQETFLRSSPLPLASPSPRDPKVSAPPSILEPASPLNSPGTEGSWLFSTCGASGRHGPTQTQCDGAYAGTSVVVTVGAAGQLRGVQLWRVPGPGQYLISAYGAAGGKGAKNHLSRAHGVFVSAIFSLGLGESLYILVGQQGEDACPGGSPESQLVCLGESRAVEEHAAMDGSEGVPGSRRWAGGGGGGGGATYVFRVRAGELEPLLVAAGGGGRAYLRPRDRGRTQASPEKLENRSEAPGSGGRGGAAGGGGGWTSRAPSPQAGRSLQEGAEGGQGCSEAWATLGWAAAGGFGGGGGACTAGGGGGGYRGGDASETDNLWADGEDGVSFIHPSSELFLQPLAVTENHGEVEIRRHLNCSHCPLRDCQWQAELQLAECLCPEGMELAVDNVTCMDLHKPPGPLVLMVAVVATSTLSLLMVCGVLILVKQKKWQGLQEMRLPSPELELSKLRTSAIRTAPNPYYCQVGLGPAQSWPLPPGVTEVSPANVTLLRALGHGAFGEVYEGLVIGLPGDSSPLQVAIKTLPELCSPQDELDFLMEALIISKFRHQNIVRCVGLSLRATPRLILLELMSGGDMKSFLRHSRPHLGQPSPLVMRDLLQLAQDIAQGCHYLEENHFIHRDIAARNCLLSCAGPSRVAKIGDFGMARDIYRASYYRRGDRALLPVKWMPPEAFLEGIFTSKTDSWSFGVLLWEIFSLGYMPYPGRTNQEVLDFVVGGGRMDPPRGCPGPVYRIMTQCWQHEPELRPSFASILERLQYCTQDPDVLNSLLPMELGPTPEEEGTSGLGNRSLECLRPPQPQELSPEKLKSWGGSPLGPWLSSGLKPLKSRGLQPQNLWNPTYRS

SMILES	residual activity
N#C/C(=C1/Nc2ccccc2S1)c1ccnc(NCCc2cccnc2)n1	83.1%
O=c1cc(N2CCOCC2)oc2c(-c3ccccc3)cccc12	87.8%
COc1cc2c(Nc3ccc(Br)cc3F)ncnc2cc1OCC1CCN(C)CC1	64.6%
N/C(=N\N=C/c1ccc(-c2cccc([N+](=O)[O-])c2)o1)N[N+](=O)[O-]	102%
O=C(c1ccccc1)c1ccc(N2CCOCC2)cc1O	107%

target: MAP3K10 (human) (UniProt Q02779); experiment: as above; conditions: compound 0.5 µM; ATP 10 µM

SMILES	residual activity
N#C/C(=C1/Nc2ccccc2S1)c1ccnc(NCCc2cccnc2)n1	79.6%
O=c1cc(N2CCOCC2)oc2c(-c3ccccc3)cccc12	90.1%
COc1cc2c(Nc3ccc(Br)cc3F)ncnc2cc1OCC1CCN(C)CC1	102%
N/C(=N\N=C/c1ccc(-c2cccc([N+](=O)[O-])c2)o1)N[N+](=O)[O-]	101%
O=C(c1ccccc1)c1ccc(N2CCOCC2)cc1O	100%

target: MAP3K11 (human) (UniProt Q16584); experiment: as above; conditions: compound 0.5 µM; ATP 10 µM

SMILES	residual activity
N#C/C(=C1/Nc2ccccc2S1)c1ccnc(NCCc2cccnc2)n1	72.2%
O=c1cc(N2CCOCC2)oc2c(-c3ccccc3)cccc12	101%
COc1cc2c(Nc3ccc(Br)cc3F)ncnc2cc1OCC1CCN(C)CC1	100%
N/C(=N\N=C/c1ccc(-c2cccc([N+](=O)[O-])c2)o1)N[N+](=O)[O-]	99.4%
O=C(c1ccccc1)c1ccc(N2CCOCC2)cc1O	93.2%
